Patent US20220372031A1, “NOVEL TRICYCLIC AROMATIC HETEROCYCLIC COMPOUND, PREPARATION METHOD THEREFOR, PHARMACEUTICAL COMPOSITION AND APPLICATION THEREOF” (SHANGHAI LONGWOOD BIOPHARMACEUTICALS CO., LTD., priority 2019, published 2022)

Molecular target: T1, PD-1/PD-L1 (Homo sapiens, UniProt Q9NZQ7)
T1 construct: Recombinant human PD-L1 protein (19-238) with a His-tagged at the C-terminus; purchased AcroBiosystems PD1-H5229 (PD-L1); PD1-H5257 (PD-1)
Assay: PD-1/PD-L1 homogeneous time-resolved fluorescence (HTRF) binding assay
Settings: PD-1/PD-L1 HTRF binding, ~3 nM PD1, 10 nM PD-L1, 25° C., PBS pH 7.4
Experimental: Assays were performed in standard black 384-well polystyrene plates and a final volume was 20 μL. The inhibitor was first serially diluted with DMSO and added to the wells of the plate, followed by the addition of other reaction components. The final concentration of DMSO in the assay was 1%. Assays were performed at 25° C. in PBS buffer (pH 7.4) containing 0.05% Tween-20 and 0.1% BSA. Recombinant human PD-L1 protein (19-238) with a His-tagged at the C-terminus was purchased from AcroBiosystems (PD1-H5229). Recombinant human PD-1 protein (25-167) with an Fc tag at the C-terminus was also purchased from AcroBiosystems (PD1-H5257). The PD-L1 and PD-1 proteins were diluted in assay buffer and then […] of the solution was extracted and added to the wells of the plate. Plates were centrifuged and proteins and inhibitors were preincubated for 40 minutes. After incubation, 0.1 μl of HTRF detection buffer containing europium […] labeled anti-human IgG (PerkinElmer-AD0212), Fc-specific and anti-His SureLight®-Allophycocyanin (APC, PerkinElmer-AD0059H) conjugated antibodies was added. After centrifugation, the plates were incubated at 25° C. for 60 minutes. Data was read in a PHERAstar FS plate reader (665 nm/620 nm ratio). Final concentrations in the assay were ˜3 nM PD1, 10 nM PD-L1, 1 nM europium anti-human IgG, and 20 nM anti-His-allophycocyanin. Activity data were fitted using GraphPad Prism 5_0 software to derive IC50 values for inhibitors.

T1 sequence (Q9NZQ7 19-238): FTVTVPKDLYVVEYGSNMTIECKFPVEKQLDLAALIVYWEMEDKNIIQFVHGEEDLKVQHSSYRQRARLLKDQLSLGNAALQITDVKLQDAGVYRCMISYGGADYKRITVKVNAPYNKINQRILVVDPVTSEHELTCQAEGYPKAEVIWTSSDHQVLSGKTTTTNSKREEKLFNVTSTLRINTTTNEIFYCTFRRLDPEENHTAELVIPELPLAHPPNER

IC50, ≤ 10 nM:
N#Cc1c2c(cc3nc(-c4cccc(-c5cccc(Nc6nc(C(F)F)nc7cc(CN8CC[C@@H](O)C8)cnc67)c5Cl)c4Cl)oc13)[C@H](N1CC[C@@H](C(=O)NS(=O)(=O)C3CC3)C1)CC2 [Compound 087]
CC1(S(=O)(=O)NC(=O)[C@@H]2CCN([C@@H]3CCc4c3cc3nc(-c5cccc(-c6cccc(Nc7nc(C(F)F)nc8cc(CN9CC[C@@H](O)C9)cnc78)c6Cl)c5Cl)oc3c4C#N)C2)CC1 [Compound 088]
COc1nc(-c2cccc(-c3cccc(-c4nc5cc6c(c(C#N)c5o4)CC[C@H]6N4CC[C@@H](C(=O)O)C4)c3Cl)c2Cl)cnc1CN1CC[C@@H](O)C1 [Compound 162]
COc1nc(-c2cccc(-c3cccc(-c4nc5cc6c(c(C#N)c5o4)CC[C@H]6N4CC[C@@H](C(=O)O)C4)c3Cl)c2C)cnc1CN1CC[C@@H](O)C1 [Compound 175]
COc1nc(-c2cccc(-c3cccc(-c4nc5cc6c(c(C#N)c5o4)CC[C@H]6N4CC[C@@H](C(=O)O)C4)c3C)c2Cl)cnc1CN1CC[C@@H](O)C1 [Compound 182]
COc1nc(-c2cccc(-c3cccc(-c4nc5cc6c(c(C#N)c5o4)CC[C@H]6N4CC[C@@H](C(=O)NS(=O)(=O)C5CC5)C4)c3Cl)c2C)cnc1CN1CC[C@@H](O)C1 [Compound 231]
COc1nc(-c2cccc(-c3cccc(-c4nc5cc6c(c(C#N)c5o4)CC[C@H]6N4CC[C@@H](C(=O)NS(=O)(=O)C5CC5)C4)c3C)c2Cl)cnc1CN1CC[C@@H](O)C1 [Compound 232]
COc1nc(-c2cccc(-c3cccc(-c4nc5cc6c(c(C#N)c5o4)CC[C@H]6N4CC[C@@H](C(=O)NS(=O)(=O)C5(C)CC5)C4)c3Cl)c2C)cnc1CN1CC[C@@H](O)C1 [Compound 233]
COc1nc(-c2cccc(-c3cccc(-c4nc5cc6c(c(C#N)c5o4)CC[C@H]6N4CC[C@@H](C(=O)NS(=O)(=O)C5(C)CC5)C4)c3C)c2Cl)cnc1CN1CC[C@@H](O)C1 [Compound 234]
Cc1c(-c2nc3cc4c(c(C#N)c3o2)CC[C@H]4N2CC[C@@H](C(=O)O)C2)cccc1-c1cccc(Nc2nccc3cc(CN4CC[C@@H](O)C4)cnc23)c1Cl [Compound 235]
N#Cc1c2c(cc3nc(-c4cccc(-c5cccc(Nc6nccc7cc(CN8CC[C@@H](O)C8)cnc67)c5Cl)c4Cl)oc13)[C@H](N1CC[C@@H](C(=O)NS(=O)(=O)C3CC3)C1)CC2 [Compound 236]
Cc1c(Nc2nccc3cc(CN4CC[C@@H](O)C4)cnc23)cccc1-c1cccc(-c2nc3cc4c(c(C#N)c3o2)CC[C@H]4N2CC[C@@H](C(=O)NS(=O)(=O)C3CC3)C2)c1Cl [Compound 237]
Cc1c(-c2nc3cc4c(c(C#N)c3o2)CC[C@H]4N2CC[C@@H](C(=O)NS(=O)(=O)C3CC3)C2)cccc1-c1cccc(Nc2nccc3cc(CN4CC[C@@H](O)C4)cnc23)c1Cl [Compound 238]
Cc1c(Nc2nccc3cc(CN4CC[C@@H](O)C4)cnc23)cccc1-c1cccc(-c2nc3cc4c(c(C#N)c3o2)CC[C@H]4N2CC[C@@H](C(=O)NS(=O)(=O)C3(C)CC3)C2)c1C [Compound 239]
CC1(S(=O)(=O)NC(=O)[C@@H]2CCN([C@@H]3CCc4c3cc3nc(-c5cccc(-c6cccc(Nc7nccc8cc(CN9CC[C@@H](O)C9)cnc78)c6Cl)c5Cl)oc3c4C#N)C2)CC1 [Compound 240]
Cc1c(Nc2nccc3cc(CN4CC[C@@H](O)C4)cnc23)cccc1-c1cccc(-c2nc3cc4c(c(C#N)c3o2)CC[C@H]4N2CC[C@@H](C(=O)NS(=O)(=O)C3(C)CC3)C2)c1Cl [Compound 241]
Cc1c(-c2nc3cc4c(c(C#N)c3o2)CC[C@H]4N2CC[C@@H](C(=O)NS(=O)(=O)C3(C)CC3)C2)cccc1-c1cccc(Nc2nccc3cc(CN4CC[C@@H](O)C4)cnc23)c1Cl [Compound 242]
Cc1c(Nc2nccc3cc(CN4CC[C@@H](O)C4)cnc23)cccc1-c1cccc(-c2cc3cc4c(c(C#N)c3o2)CC[C@@H]4N2CC[C@@H](C(=O)O)C2)c1C [Compound 243]
Cc1c(Nc2nccc3cc(CN4CC[C@@H](O)C4)cnc23)cccc1-c1cccc(-c2cc3cc4c(c(C#N)c3o2)CC[C@H]4N2CC[C@@H](C(=O)O)C2)c1C [Compound 244]
N#Cc1c2c(cc3cc(-c4cccc(-c5cccc(Nc6nccc7cc(CN8CC[C@@H](O)C8)cnc67)c5Cl)c4Cl)oc13)[C@H](N1CC[C@@H](C(=O)O)C1)CC2 [Compound 245]
Cc1c(Nc2nccc3cc(CN4CC[C@@H](O)C4)cnc23)cccc1-c1cccc(-c2cc3cc4c(c(C#N)c3o2)CC[C@H]4N2CC[C@@H](C(=O)O)C2)c1Cl [Compound 246]
Cc1c(-c2cc3cc4c(c(C#N)c3o2)CC[C@H]4N2CC[C@@H](C(=O)O)C2)cccc1-c1cccc(Nc2nccc3cc(CN4CC[C@@H](O)C4)cnc23)c1Cl [Compound 247]
Cc1c(Nc2nccc3cc(CN4CC[C@@H](O)C4)cnc23)cccc1-c1cccc(-c2cc3cc4c(c(C#N)c3o2)CC[C@H]4N2CC[C@@H](C(=O)NS(=O)(=O)C3CC3)C2)c1C [Compound 248]
N#Cc1c2c(cc3cc(-c4cccc(-c5cccc(Nc6nccc7cc(CN8CC[C@@H](O)C8)cnc67)c5Cl)c4Cl)oc13)[C@H](N1CC[C@@H](C(=O)NS(=O)(=O)C3CC3)C1)CC2 [Compound 249]
Cc1c(Nc2nccc3cc(CN4CC[C@@H](O)C4)cnc23)cccc1-c1cccc(-c2cc3cc4c(c(C#N)c3o2)CC[C@H]4N2CC[C@@H](C(=O)NS(=O)(=O)C3CC3)C2)c1Cl [Compound 250]
Cc1c(-c2cc3cc4c(c(C#N)c3o2)CC[C@H]4N2CC[C@@H](C(=O)NS(=O)(=O)C3CC3)C2)cccc1-c1cccc(Nc2nccc3cc(CN4CC[C@@H](O)C4)cnc23)c1Cl [Compound 251]
Cc1c(Nc2nccc3cc(CN4CC[C@@H](O)C4)cnc23)cccc1-c1cccc(-c2cc3cc4c(c(C#N)c3o2)CC[C@H]4N2CC[C@@H](C(=O)NS(=O)(=O)C3(C)CC3)C2)c1C [Compound 252]
CC1(S(=O)(=O)NC(=O)[C@@H]2CCN([C@@H]3CCc4c3cc3cc(-c5cccc(-c6cccc(Nc7nccc8cc(CN9CC[C@@H](O)C9)cnc78)c6Cl)c5Cl)oc3c4C#N)C2)CC1 [Compound 253]
COc1nc(-c2cccc(-c3cccc(-c4cc5cc6c(c(C#N)c5o4)CC[C@H]6N4CC[C@@H](C(=O)O)C4)c3C)c2C)cnc1CN1CC[C@@H](O)C1 [Compound 256]
COc1nc(-c2cccc(-c3cccc(-c4cc5cc6c(c(C#N)c5o4)CC[C@H]6N4CC[C@@H](C(=O)O)C4)c3Cl)c2Cl)cnc1CN1CC[C@@H](O)C1 [Compound 257]
COc1nc(-c2cccc(-c3cccc(-c4cc5cc6c(c(C#N)c5o4)CC[C@H]6N4CC[C@@H](C(=O)O)C4)c3Cl)c2C)cnc1CN1CC[C@@H](O)C1 [Compound 258]
COc1nc(-c2cccc(-c3cccc(-c4cc5cc6c(c(C#N)c5o4)CC[C@H]6N4CC[C@@H](C(=O)O)C4)c3C)c2Cl)cnc1CN1CC[C@@H](O)C1 [Compound 259]
COc1nc(-c2cccc(-c3cccc(-c4cc5cc6c(c(C#N)c5o4)CC[C@H]6N4CC[C@@H](C(=O)NS(=O)(=O)C5CC5)C4)c3C)c2C)cnc1CN1CC[C@@H](O)C1 [Compound 260]
COc1nc(-c2cccc(-c3cccc(-c4cc5cc6c(c(C#N)c5o4)CC[C@H]6N4CC[C@@H](C(=O)NS(=O)(=O)C5CC5)C4)c3Cl)c2Cl)cnc1CN1CC[C@@H](O)C1 [Compound 261]
COc1nc(-c2cccc(-c3cccc(-c4cc5cc6c(c(C#N)c5o4)CC[C@H]6N4CC[C@@H](C(=O)NS(=O)(=O)C5CC5)C4)c3Cl)c2C)cnc1CN1CC[C@@H](O)C1 [Compound 262]
COc1nc(-c2cccc(-c3cccc(-c4cc5cc6c(c(C#N)c5o4)CC[C@H]6N4CC[C@@H](C(=O)NS(=O)(=O)C5CC5)C4)c3C)c2Cl)cnc1CN1CC[C@@H](O)C1 [Compound 263]
COc1nc(-c2cccc(-c3cccc(-c4cc5cc6c(c(C#N)c5o4)CC[C@H]6N4CC[C@@H](C(=O)NS(=O)(=O)C5(C)CC5)C4)c3C)c2C)cnc1CN1CC[C@@H](O)C1 [Compound 264]
COc1nc(-c2cccc(-c3cccc(-c4cc5cc6c(c(C#N)c5o4)CC[C@H]6N4CC[C@@H](C(=O)NS(=O)(=O)C5(C)CC5)C4)c3Cl)c2Cl)cnc1CN1CC[C@@H](O)C1 [Compound 265]
COc1nc(-c2cccc(-c3cccc(-c4cc5cc6c(c(C#N)c5o4)CC[C@H]6N4CC[C@@H](C(=O)NS(=O)(=O)C5(C)CC5)C4)c3Cl)c2C)cnc1CN1CC[C@@H](O)C1 [Compound 266]
COc1nc(-c2cccc(-c3cccc(-c4cc5cc6c(c(C#N)c5o4)CC[C@H]6N4CC[C@@H](C(=O)NS(=O)(=O)C5(C)CC5)C4)c3C)c2Cl)cnc1CN1CC[C@@H](O)C1 [Compound 267]
COc1nc(-c2cccc(-c3cccc(-c4nc5cc6c(c(C#N)c5o4)CC[C@H]6N4CC[C@@H](C(=O)O)C4)c3Cl)c2C)cnc1CNC[C@@H]1CCC(=O)N1 [Compound 268]
